This note sets out measurements from ChEMBL document CHEMBL5724914, “Linking interpersonal differences in gut microbiota composition and drug biotransformation activity” (2024).

The conditions of series [1]: human gut metagenome, 24 h, 2 µM.
For series [2] the following is noted: human gut metagenome, 24 h, 2 µM. This is another data set of the same source.
Series [3] is described as follows: The drug is tested on WLS-310 corresponding to human gut metagenome with ENA study accession number: PRJEB37062 and ENA sample accession number: ERS12561785 for biotransformation under anaerobic condition. The drug concentrations were measured over 9 timepoints collected between 0 and 24 hours of incubation by liquid-chromatography-coupled mass spectrometry (LC–MS). The conditions noted are these: 2 µM.

For series [4] the following is noted: human gut metagenome, 24 h, 2 µM. This is another data set of the same source.
Series [5] can be described thus: The drug is tested on Z-018 corresponding to pig gut metagenome with ENA study accession number: PRJEB37062 and ENA sample accession number: ERS12561817 for biotransformation under anaerobic condition. The drug concentrations were measured over 9 timepoints collected between 0 and 24 hours of incubation by liquid-chromatography-coupled mass spectrometry (LC–MS). The conditions noted are these: 2 µM.

The nature of series [6]: The drug is tested on Z-024 corresponding to pig gut metagenome with ENA study accession number: PRJEB37062 and ENA sample accession number: ERS12561823 for biotransformation under anaerobic condition. The drug concentrations were measured over 9 timepoints collected between 0 and 24 hours of incubation by liquid-chromatography-coupled mass spectrometry (LC–MS). The conditions noted are these: 2 µM.

The nature of series [7]: The drug is tested on WLS-086 corresponding to human gut metagenome with ENA study accession number: PRJEB37062 and ENA sample accession number: ERS12561752 for biotransformation under anaerobic condition. The drug concentrations were measured over 9 timepoints collected between 0 and 24 hours of incubation by liquid-chromatography-coupled mass spectrometry (LC–MS). The conditions noted are these: 2 µM.

Series [8] in a line: The drug is tested on WLS-038 corresponding to human gut metagenome with ENA study accession number: PRJEB37062 and ENA sample accession number: ERS12561745 for biotransformation under anaerobic condition. The drug concentrations were measured over 9 timepoints collected between 0 and 24 hours of incubation by liquid-chromatography-coupled mass spectrometry (LC–MS). The conditions noted are these: 2 µM.

Series [9] in a line: The drug is tested on WLS-220 corresponding to human gut metagenome with ENA study accession number: PRJEB37062 and ENA sample accession number: ERS12561769 for biotransformation under anaerobic condition. The drug concentrations were measured over 9 timepoints collected between 0 and 24 hours of incubation by liquid-chromatography-coupled mass spectrometry (LC–MS). The conditions noted are these: 2 µM.

For series [10] the following is noted: human gut metagenome, 24 h, 2 µM. This is another data set of the same source.
For series [11] the following is noted: human gut metagenome, 24 h, 2 µM. The source holds these as a separate data set.
Series [12] is described as follows: The drug is tested on Z-026 corresponding to metagenome with ENA study accession number: PRJEB37062 and ENA sample accession number: ERS12561825 for biotransformation under anaerobic condition. The drug concentrations were measured over 9 timepoints collected between 0 and 24 hours of incubation by liquid-chromatography-coupled mass spectrometry (LC–MS). The conditions noted are these: 2 µM.

The nature of series [13]: The drug is tested on Z-021 corresponding to metagenome with ENA study accession number: PRJEB37062 and ENA sample accession number: ERS12561820 for biotransformation under anaerobic condition. The drug concentrations were measured over 9 timepoints collected between 0 and 24 hours of incubation by liquid-chromatography-coupled mass spectrometry (LC–MS). The conditions noted are these: 2 µM.

Series [14] can be described thus: The drug is tested on Z-009 corresponding to pig gut metagenome with ENA study accession number: PRJEB37062 and ENA sample accession number: ERS12561809 for biotransformation under anaerobic condition. The drug concentrations were measured over 9 timepoints collected between 0 and 24 hours of incubation by liquid-chromatography-coupled mass spectrometry (LC–MS). The conditions noted are these: 2 µM.

The nature of series [15]: The drug is tested on Z-010 corresponding to metagenome with ENA study accession number: PRJEB37062 and ENA sample accession number: ERS12561810 for biotransformation under anaerobic condition. The drug concentrations were measured over 9 timepoints collected between 0 and 24 hours of incubation by liquid-chromatography-coupled mass spectrometry (LC–MS). The conditions noted are these: 2 µM.

For series [16] the following is noted: human gut metagenome, 24 h, 2 µM. The source holds these as a separate data set.
Series [17] in a line: The drug is tested on Z-028 corresponding to mouse gut metagenome with ENA study accession number: PRJEB37062 and ENA sample accession number: ERS12561827 for biotransformation under anaerobic condition. The drug concentrations were measured over 9 timepoints collected between 0 and 24 hours of incubation by liquid-chromatography-coupled mass spectrometry (LC–MS). The conditions noted are these: 2 µM.

Series [18] in a line: The drug is tested on Z-023 corresponding to metagenome with ENA study accession number: PRJEB37062 and ENA sample accession number: ERS12561822 for biotransformation under anaerobic condition. The drug concentrations were measured over 9 timepoints collected between 0 and 24 hours of incubation by liquid-chromatography-coupled mass spectrometry (LC–MS). The conditions noted are these: 2 µM.

The conditions of series [19]: human gut metagenome, 24 h, 2 µM. This is another data set of the same source.
A short description of series [20]: The drug is tested on WLS-090 corresponding to human gut metagenome with ENA study accession number: PRJEB37062 and ENA sample accession number: ERS12561753 for biotransformation under anaerobic condition. The drug concentrations were measured over 9 timepoints collected between 0 and 24 hours of incubation by liquid-chromatography-coupled mass spectrometry (LC–MS). The conditions noted are these: 2 µM.
Note: call rule not given here.

As to `Br.COc1ccc2c(c1)[C@]13CCCC[C@@H]1[C@H](C2)N(C)CC3.O` [DEXTROMETHORPHAN HYDROBROMIDE], the “Bacterial Biotransformation” value in series [1] is listed as “Compound metabolized”; in [2], “Compound NOT metabolized”; in [3], “Compound metabolized”; in series [4], “Compound NOT metabolized”; in series [5] it was “Compound metabolized”; in [6] it was “Compound metabolized”. Moreover, the “Bacterial Biotransformation” value in series [7] is recorded as “Compound metabolized”; in series [8] it was “Compound NOT metabolized”; in [9] it was “Compound metabolized”; in [10] it was “Compound metabolized”; in series [11], “Compound metabolized”; in [12] it was “Compound NOT metabolized”. In addition, the “Bacterial Biotransformation” value in series [13] was “Compound metabolized”; in [14], “Compound metabolized”; in series [15], “Compound metabolized”; in [16], “Compound metabolized”; in [17] it was “Compound NOT metabolized”; in series [18] it was “Compound metabolized”. Besides, the entries for the “Bacterial Biotransformation” value in series [19] and in series [20] were “Compound NOT metabolized” and “Compound metabolized”, respectively.

On to `CC(=O)OCC(=O)NCCCOc1cccc(CN2CCCCC2)c1` [ROXATIDINE ACETATE], for which the “Bacterial Biotransformation” value in [1], in series [2], in series [3], in series [4], in [5] and in [6] was “Compound metabolized” each time. Further, the “Bacterial Biotransformation” value in series [7], in series [8], in series [9], in series [10], in series [11] and in series [12] was “Compound metabolized” each time. The “Bacterial Biotransformation” value in [13], in series [14], in [15], in [16], in series [17] and in series [18] was “Compound metabolized” throughout. The “Bacterial Biotransformation” value in [19] and in series [20] was “Compound metabolized” in each case.

With `CC(C)(C)NC[C@H](O)COc1nsnc1N1CCOCC1.O=C(O)/C=C\C(=O)O` [TIMOLOL MALEATE], the “Bacterial Biotransformation” value in series [1], in [2], in [3], in series [4], in series [5] and in [6] was “Compound NOT metabolized” throughout. Besides, the “Bacterial Biotransformation” value in [7], in [8], in series [9], in series [10], in series [11] and in series [12] was “Compound NOT metabolized” throughout. The “Bacterial Biotransformation” value in series [13], in series [14], in series [15], in [16], in series [17] and in series [18] was “Compound NOT metabolized” in each case. The “Bacterial Biotransformation” value in series [19] and in series [20] was “Compound NOT metabolized” throughout.

As to `Cc1ccccc1C(OCCN(C)C)c1ccccc1.O=C(O)CC(O)(CC(=O)O)C(=O)O` (stereo not given) [ORPHENADRINE CITRATE], the “Bacterial Biotransformation” value was “Compound NOT metabolized” in series [1]; “Compound NOT metabolized” in series [2]; “Compound NOT metabolized” in series [3]; “Compound NOT metabolized” in [4]; “Compound metabolized” in [5]; “Compound metabolized” in series [6]. Moreover, the “Bacterial Biotransformation” value in series [7] is recorded as “Compound NOT metabolized”; in [8], “Compound NOT metabolized”; in [9], “Compound NOT metabolized”; in series [10] it was “Compound metabolized”; in series [11], “Compound NOT metabolized”; in series [12], “Compound NOT metabolized”. In addition, the “Bacterial Biotransformation” value in series [13] is “Compound metabolized”; in series [14], “Compound metabolized”; in series [15], “Compound NOT metabolized”; in series [16], “Compound metabolized”; in series [17], “Compound NOT metabolized”; in [18], “Compound metabolized”. Besides, the “Bacterial Biotransformation” value in series [19] was “Compound metabolized”; in series [20] it was “Compound NOT metabolized”.

For the compound `CCN(CC)CCOC(=O)C1(C2CCCCC2)CCCCC1` [DICYCLOMINE], the “Bacterial Biotransformation” value in series [1] is listed as “Compound NOT metabolized”; in series [2], “Compound metabolized”; in [3], “Compound metabolized”; in series [4], “Compound metabolized”; in [5] it was “Compound NOT metabolized”; in series [6] it was “Compound metabolized”. Besides, the “Bacterial Biotransformation” value in series [7] is “Compound metabolized”; in series [8], “Compound NOT metabolized”; in series [9], “Compound NOT metabolized”; in series [10], “Compound metabolized”; in series [11], “Compound metabolized”; in [12], “Compound NOT metabolized”. Moreover, the “Bacterial Biotransformation” value is recorded as “Compound NOT metabolized” in [13]; “Compound metabolized” in series [14]; “Compound metabolized” in series [15]; “Compound NOT metabolized” in series [16]; “Compound NOT metabolized” in series [17]; “Compound metabolized” in [18]. In addition, the “Bacterial Biotransformation” value in [19] and in [20] was “Compound metabolized” each time.
